Experimental data: paper PMC4033217, “Characterization of Novel PI3Kδ Inhibitors as Potential Therapeutics for SLE and Lupus Nephritis in Pre-Clinical Studies” (Frontiers in Immunology, 2014)

How the values were obtained:
BXSB mice = system: BXSB mice; design: method as in PMID 24445960; settings: cited from earlier work
CD69 on B220+ B cells = assay: Ex vivo anti-IgD-induced CD69 up-regulation in the SLE model; design: species or system mouse; settings: once daily for 2 weeks, 1 h after last dosing
NZB/W F1 mice [1] = assay: IFNα-accelerated NZB/W F1 mouse SLE model; assay type: in vivo
Description: (§1) All protocols and procedures were conducted according to German animal protection law (Tierschutzgesetz) and were approved by the local veterinarian authorities (Regierungspräsidium, Darmstadt, Germany). Ten-week-old female NZB/W F1 mice (Jackson Laboratories, Bar Harbor, ME, USA) were given a single i.v. injection of 1 × 10^8 IU/100 μl of AdV-IFN-α (adenovirus with mmIfna5_v1 insert, Biofocus, CoA.NL.09.160) in saline or left untreated (sham). Drug treatments were either initiated at 2 weeks (early intervention regimen) or 4 weeks (late intervention regimen) post AdV-IFN-α delivery until the end of the experiment (at 10 weeks). […] Serum and urine samples were collected for anti-dsDNA antibodies (by ELISA) and urinary protein creatinine ratio (UPCR) (measured by ADVIA 1800) determination, respectively, on the days indicated. Proteinuria is defined as UPCR >3.

NZB/W F1 mice [2] = assay: Lymphocyte subsets in spleen at end of treatment, accelerated NZB/W F1 SLE model; assay type: in vivo, mouse; settings: MMF 300 mg/kg once daily, early intervention
Description: as §1

In the case of `Cc1ccccc1-n1c(Cn2cnc3c(N)ncnc32)nc2cccc(C)c2c1=O` [IC87114], the “Autoantibody production and kidney pathology” value (BXSB mice) is given as “decreases autoantibody production and kidney pathology”.

In the case of `COc1c(C)c2c(c(O)c1C/C=C(\C)CCC(=O)OCCN1CCOCC1)C(=O)OC2` [MMF, mycophenolate mofetil], the “Ex vivo anti-IgD-induced CD69 surface expression on B220+ B cells” value (CD69 on B220+ B cells) is reported as “indistinguishable from untreated mice”, the Protection against proteinuria (NZB/W F1 mice [1]; early intervention, MSC2360844 66 mg/kg or MMF 300 mg/kg once daily oral) is reported as “almost completely protected against proteinuria” and the “Serum anti-dsDNA IgG” value (NZB/W F1 mice [1]; early treatment, neither statistically significant nor dose-dependent) is reported as “tendency of serum anti-dsDNA IgG reduction”. For the same compound, the “No. of cells (×10^6) (mean ± SD): B220^+CD19^+ (total B cells)” value (NZB/W F1 mice [2]) was 20.65 (±6.54) ×10^6, the “No. of cells (×10^6) (mean ± SD): CD3^+ (total T-cells)” value (NZB/W F1 mice [2]) was 21.05 (±6.83) ×10^6 and the “No. of cells (×10^6) (mean ± SD): CD138^+ (plasma cells)” value (NZB/W F1 mice [2]) was 0.43 (±0.28) ×10^6. For the same compound, the “No. of cells (×10^6) (mean ± SD): GL-7^+IgG^− (GC B cells)” value (NZB/W F1 mice [2]) was 0.23 (±0.16) ×10^6, the “No. of cells (×10^6) (mean ± SD): IgG^+ (class-switched B cells)” value (NZB/W F1 mice [2]) was 0.17 (±0.05) ×10^6 and the “No. of cells (×10^6) (mean ± SD): Total splenocytes” value (NZB/W F1 mice [2]) was 46.50 (±25.17) ×10^6. The “No. of cells (×10^6) (mean ± SD): activated CD4^+ T-cells” value (NZB/W F1 mice [2]) was 5.24 (±2.05) ×10^6 and the “No. of cells (×10^6) (mean ± SD): activated CD8^+ T-cells” value (NZB/W F1 mice [2]) was 0.23 (±0.09) ×10^6.
